Measurements from patent US7968532B2 (Besins Healthcare Luxembourg, priority 2003, dated 2011).
Where two headings read alike, the source gives them in different places. One block for each compound: values may come before it.

Experiments:
[1] = Follow-up study: percutaneous Z-[^3H]-4-hydroxy tamoxifen or Z-[^3H]-tamoxifen on the breast before surgery; tissue, plasma, urine radioactivity; details: for Share of radioactivity in blood: 24 hours after percutaneous 4-hydroxy tamoxifen
Protocol: (§1) The patients received [^3H]-labeled drug applied directly on the affected breasts at specified intervals ranging from 12 hours to 7 days before surgery to excise diseased tissue. Breast tissue from three regions: the tumor, tissue immediately surrounding the tumor, and normal tissue, was excised and immediately frozen in liquid nitrogen. Additionally, plasma and urine samples were obtained at scheduled intervals and frozen until analysis.

[2] = Pharmacokinetics of 4-hydroxy tamoxifen gel in healthy premenopausal women; type: in vivo, human
Protocol: (§2) Each participant applied the gel daily for the duration of two menstrual cycles.
At the end of a menstrual cycle, each patient received a single dose, after which serial blood samples were collected at 0, 0.5, 1, 1.5, 2, 3, 4, 6, 12, 18, 24, 36, 48, and 72 hours.
(§3) On the first day of the following menstruation, treatment, which consisted of daily application of the gel over two menstrual cycles, began. Blood samples were collected 24 hours following the morning application of gel on days 7, 20 and 25 of the first and second cycles. On the last day of administration, day 25 of the second menstrual cycle, serial blood samples were collected prior to application and at 0.5, 1, 1.5, 2, 3, 4, 6, 12, 18, 24, 36, 48, and 72 hours after application of the gel.

[3] = in vivo
Protocol: as §1

[4] = topical application
Protocol: as §2, §3

[5] = system: rat liver; details: cited from earlier work
[6] = human, in vivo; cited from earlier work
[7] = one person in Group 2 (0.5 mg/day gel, seventh day); one person in Group 1 (oral tamoxifen, fifth day); cited from earlier work

Percentage of radioactivity in breast tissue as Z and E isomer ([1]; day 7 after percutaneous administration): 33%
Structure (SMILES): CC/C(=C(/c1ccc(O)cc1)c1ccc(OCCN(C)C)cc1)c1ccccc1 (single isomer, unassigned) [E isomer]

Plasma concentration of 4-hydroxy tamoxifen, Mean ± SD (Range) ([2]; 0.5 mg/day, gel 20 mg/100 g, n=12, First cycle Day 1, 0 hr): (0-17.2) pg/mL
Plasma concentration of 4-hydroxy tamoxifen, Mean ± SD (Range) ([2]; 0.5 mg/day, gel 20 mg/100 g, n=12, Second cycle, +8 days, LOQ <5 pg/mL): <LOQ
Plasma concentration of 4-hydroxy tamoxifen, Mean ± SD (Range) ([2]; 0.5 mg/day, gel 20 mg/100 g, n=12, Second cycle, +12 days (maximum)): ≤ 9.09 pg/mL
Plasma concentration of 4-hydroxy tamoxifen, Mean ± SD (Range) ([2]; 0.5 mg/day, gel 20 mg/100 g, n=12, Second cycle, +20 days): 0 pg/mL
Plasma concentration of 4-hydroxy tamoxifen, Mean ± SD (Range) ([2]; 1 mg/day, gel 20 mg/100 g, n=8, First cycle Day 1, 0 hr): (0-13.9) pg/mL
Plasma concentration of 4-hydroxy tamoxifen, Mean ± SD (Range) ([2]; 1 mg/day, gel 20 mg/100 g, n=8, Second cycle, +20 days, LOQ <5 pg/mL): <LOQ
Plasma concentration of 4-hydroxy tamoxifen, Mean ± SD (Range) ([2]; 1 mg/day, gel 57 mg/100 g, n=12, First cycle Day 1, 0 hr): (0-9.5) pg/mL
Plasma concentration of 4-hydroxy tamoxifen, Mean ± SD (Range) ([2]; 1 mg/day, gel 57 mg/100 g, n=12, Second cycle, +8 days): (0-14.8) pg/mL
Plasma concentration of 4-hydroxy tamoxifen, Mean ± SD (Range) ([2]; 2 mg/day, gel 57 mg/100 g, n=12, First cycle Day 1, 0 hr): (0-0) pg/mL
Plasma concentration of 4-hydroxy tamoxifen, Mean ± SD (Range) ([2]; 2 mg/day, gel 57 mg/100 g, n=12, Second cycle, +12 days): (0-30.4) pg/mL
Share of radioactivity in blood [3]: 68%
Time of plateau of radioactivity in blood [3]: 4 to 6 days
Structure (SMILES): CCC(=C(c1ccc(O)cc1)c1ccc(OCCN(C)C)cc1)c1ccccc1 [4-hydroxy tamoxifen, 1-[4-(2-N-dimethylaminoethoxy)phenyl]-1-(4-hydroxyphenyl)-2-phenylbut-1-ene]
Metabolism in cytosolic and nuclear fractions of breast tissue [3]: remained unmetabolized except for limited isomerization from the Z to the E form
Subcellular distribution in breast tissue [3]: concentrated predominantly in the cytosolic and nuclear fractions of breast tissue
Systemic effects [4]: no detectable laboratory or clinical evidence of systemic effects
Rat liver carcinogen ([5]; in vivo): not
Radioactivity in excised tissue and normal breast tissue surrounding the tumor [6]: contained radioactivity

Structure (SMILES): CCC(=C(c1ccc(O)cc1)c1ccc(O)cc1)c1ccccc1 [Bisphenol]
Share of radioactivity in blood [1]: 11%

Share of radioactivity in blood [1]: 18%
Structure (SMILES): CCC(=C(c1ccc(O)cc1)c1ccc(OCCNC)cc1)c1ccccc1 [N-Desmethyl-4-Hydroxy Tamoxifen]

Percentage of radioactivity in breast tissue as Z and E isomer [3]: 32%
Structure (SMILES): CC/C(=C(\c1ccc(O)cc1)c1ccc(OCCN(C)C)cc1)c1ccccc1 [Z-4-hydroxy tamoxifen]

Structure (SMILES): CC/C(=C(\c1ccccc1)c1ccc(OCCN(C)C)cc1)c1ccccc1 [tamoxifen, reference compound]
Reported side effects [7]: hot flashes and mild vaginitis
Rat liver carcinogen [5]: is a potent rat liver carcinogen
